Source: PMC3069973, “A Fungal Metabolite Asperparaline A Strongly and Selectively Blocks Insect Nicotinic Acetylcholine Receptors: The First Report on the Mode of Action” (PLoS ONE, 2011)

Tests used:
[1] = target: T1, L-glutamate-gated chloride channel (native, silkworm larval brain neurons, subunits not identified) (Bombyx mori, UniProt V9P9S1); test: whole-cell patch-clamp, agonist-evoked current at […] (stated to be close to EC50); format: cell-based
T1 construct: native receptors in cultured larval brain neurons
T1 sequence (V9P9S1 25-446): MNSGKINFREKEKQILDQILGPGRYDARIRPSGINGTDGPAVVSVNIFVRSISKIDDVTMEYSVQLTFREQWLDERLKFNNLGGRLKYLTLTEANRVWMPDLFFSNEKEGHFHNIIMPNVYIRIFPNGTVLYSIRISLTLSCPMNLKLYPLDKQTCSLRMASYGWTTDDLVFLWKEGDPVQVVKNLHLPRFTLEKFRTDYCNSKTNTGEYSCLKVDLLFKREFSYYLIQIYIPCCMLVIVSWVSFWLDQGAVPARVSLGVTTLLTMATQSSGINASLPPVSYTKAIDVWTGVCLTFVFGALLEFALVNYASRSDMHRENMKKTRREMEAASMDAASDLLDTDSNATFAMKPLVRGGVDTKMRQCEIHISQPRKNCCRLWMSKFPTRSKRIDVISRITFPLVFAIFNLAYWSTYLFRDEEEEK

[2] = test system: T2, nicotinic acetylcholine receptor (native nAChRs of silkworm larval brain neurons, subunits not identified); test: whole-cell patch-clamp, block of peak ACh-induced current (slowly desensitizing current IC50 […]); format: cell-based, Bombyx mori
T2 construct: native receptors in cultured larval brain neurons

[3] = target: T3, α3β4 nicotinic acetylcholine receptor (Gallus gallus, UniProt P09481+P26153); test: two-electrode voltage-clamp, weak block:[…] reduction of the ACh response at […]; format: cell-based
T3 construct: gene CHRNA3; chicken α3β4 nAChR expressed in Xenopus laevis oocytes; with nAChR β4 subunit
T3 sequence (P09481 23-496): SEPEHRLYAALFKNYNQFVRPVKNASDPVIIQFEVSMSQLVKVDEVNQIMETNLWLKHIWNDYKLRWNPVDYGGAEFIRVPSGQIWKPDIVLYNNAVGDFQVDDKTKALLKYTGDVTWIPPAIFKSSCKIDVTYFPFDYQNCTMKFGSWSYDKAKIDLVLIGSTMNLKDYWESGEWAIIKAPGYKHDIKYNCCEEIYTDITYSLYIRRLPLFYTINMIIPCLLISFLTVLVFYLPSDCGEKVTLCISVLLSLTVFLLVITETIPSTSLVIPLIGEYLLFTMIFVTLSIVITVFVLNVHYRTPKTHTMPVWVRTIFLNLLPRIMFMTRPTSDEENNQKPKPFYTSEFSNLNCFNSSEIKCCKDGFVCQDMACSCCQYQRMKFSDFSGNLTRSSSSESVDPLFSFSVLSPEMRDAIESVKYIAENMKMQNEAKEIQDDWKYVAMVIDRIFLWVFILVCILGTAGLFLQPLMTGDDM
T3 sequence (P26153 4-470): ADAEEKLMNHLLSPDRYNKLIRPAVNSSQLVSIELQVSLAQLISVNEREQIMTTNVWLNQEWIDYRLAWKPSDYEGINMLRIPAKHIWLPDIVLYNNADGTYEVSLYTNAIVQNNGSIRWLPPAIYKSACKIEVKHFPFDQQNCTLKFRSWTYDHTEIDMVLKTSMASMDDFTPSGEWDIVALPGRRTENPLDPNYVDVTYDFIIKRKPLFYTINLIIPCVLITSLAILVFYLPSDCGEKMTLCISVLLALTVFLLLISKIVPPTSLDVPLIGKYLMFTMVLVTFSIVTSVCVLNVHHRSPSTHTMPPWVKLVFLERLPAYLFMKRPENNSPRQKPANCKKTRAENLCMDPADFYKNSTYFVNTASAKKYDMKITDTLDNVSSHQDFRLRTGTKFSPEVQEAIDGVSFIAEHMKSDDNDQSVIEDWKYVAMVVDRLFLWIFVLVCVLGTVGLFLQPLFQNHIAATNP

[4] = test system: T2, nicotinic acetylcholine receptor (native nAChRs of silkworm larval brain neurons, subunits not identified); test: whole-cell patch-clamp, agonist concentration-response; format: cell-based, Bombyx mori

For `N[C@@H](CCC(=O)O)C(=O)O` [L-glutamate], the EC50 [1] was ~ 30 µM.
In the case of `C[C@H]1CCN2C[C@]34C[C@]5(CC(=O)N(C)C5=O)C(C)(C)[C@@H]3C[C@]12C(=O)N4C` [asperparaline A], the IC50 [2] is reported as 0.0202 µM and the inhibition at 10 µM [3] is reported as 33.4%.
